“Also recorded” adds a separate entry of the source.
Tests used:
DMBA-TPA induced tumors = test: Regression of DMBA-TPA induced tumors in mice; type: in vivo, mouse; conditions: 2 mg topically twice a week for four weeks
Protocol: Referring to FIG. 12, after 4 weeks, animals were sacrificed and the dorsal skin was used for histology. […] In addition, topical application of 2 mg of 2-ME during tumor initiation-promotion stage inhibited hyperplasia by about 14%. […] In addition, the present inventors have treated mice that have developed the tumors using DMBA-TPA protocol with 2 mg of 2-ME topically twice a week for four weeks to see if tumors regress. During this four-week study, we have noticed that the number of tumors reduced from 10 to 8 in one animal (one such tumor is indicated by an arrow in the mouse II—see FIG. 13) and no change in the other animal.

endothelial cell = conditions: background, reference (3); cited from earlier work
LNCaP cells = test: Cell growth, CELLTITER96 AQUEOUS ONE tetrazolium assay; type: cell-based; conditions: for inhibition of growth: 72 hours
Protocol: (§1) Referring to FIG. 1, actively growing LNCaP and DU145 cells were plated in 96-well plates at a density of 10^5 cells per well. After 24 hours in a 37° C. incubator with 5% CO2, the cells were treated with the indicated concentration of 2-ME. Control cells received only the vehicle (DMSO). Cell growth was monitored every 24 hours using the […]96 AQUEOUS ONE solution assay containing a tetrazolium compound (Promega Corporation, Madison, Wis.).
(§2) The assay is based on the principle that actively growing cells generate reducing equivalents such as NADH that is necessary for the cells to reduce the tetrazolium compound to formazan product that is detected by measuring the absorbance at […]. Increase in absorbance indicates cell viability.
(§3) The data reflected in FIG. 1 represents an average of five replicates and the experiment was conducted twice. […] It is known that there are differences of AR and p53 between these two cell types.
Cells were treated with either eugenol (0.25, 0.5, 0.75 or 1 mM) or 2-ME (0.5, 1, 2 or 3 mM) or both (0.25, 0.5, 0.75 or 1 mM of eugenol along with 0.5 mM of 2-ME). Cell growth was measured following 72 hours of treatment as described above.

DU145 cells [1] = test: Cell cycle distribution by flow cytometric analysis (Krishan stain); type: cell-based; conditions: DU145, 3 μM, 16 hours
Protocol: Referring to FIG. 3, since 2-ME inhibited the growth of LNCaP and DU145 cells, the present inventors set out to examine whether 2-ME treatment altered the distribution of cells during cell cycle progression. Logarithmically growing DU145 cells were plated in 60 mm dishes as described above at a density of 10^5 cells per dish. After 24 hours of growth at 37° C. in an incubator with 5% CO2, half the dishes were treated with 3 μM of 2-ME and the other half was left untreated. Cells were observed every 24 hours for morphological changes following treatment with 2-ME. After 16 hours of incubation cells were harvested by trypsinization and the cell pellet was resuspended in 1 ml of Krishan stain and subjected to flow cytometric analysis at the Flow Cytometry facility of the University of Colorado Comprehensive Cancer Center, Denver, Colo. […] This could be due to alteration of expression and/or activities of cell cycle regulatory proteins in the G2/M phase.

epidermal hyperplasia = test: Mouse two-stage carcinogenesis model (DMBA/TPA), skin hyperplasia; type: in vivo; conditions: 4 weeks, Sencar mice
Source text: To test the efficacy of 2-ME in preventing or reversing neoplastic progression, the present inventors have conducted investigations using the well-established mouse two-stage carcinogenesis model. This model was developed to study the complex multistep process of epidermal carcinogenesis since initiation and promotion are involved in the development of cancer in humans. […] Although treatment of mouse skin with a single large dose of DMBA can induce papillomas in about 10-20 weeks and carcinomas in about 20-60 weeks, repetitive doses are necessary to induce tumors at lower levels. No tumors are formed at a sub-threshold dose of DMBA. However, if TPA is applied to the mice initiated with a sub threshold dose of DMBA, multiple papillomas appear after a short latency period, followed by squamous cell carcinomas after a longer period. Tumors cannot be induced with repetitive treatment of TPA in the absence of initiation. Such phenotypic changes produced in the epidermis by TPA treatment are critical for neoplastic progression. One such characteristic feature of neoplastic progression is hyperplasia.
Female Sencar mice were divided into 7 groups each with 5 animals. […]

DU145 cells [2] = test: Cell growth, CELLTITER96 AQUEOUS ONE tetrazolium assay; type: cell-based
Protocol: as §1, §2, §3

p53 in LNCaP cells = test: p53 EMSA and Western blot of whole cell extracts; type: cell-based
Protocol: (§4) FIG. 4 depicts an electrophoretic mobility shift assay (EMSA) of whole cell extracts (prepared from LNCaP and DU145 cells that were untreated (C) or treated (T) with 3 μM 2-ME for 48 h) using p53 consensus oligonucleotide as radiolabled probe. The indicated amounts (μg) of the extract was incubated with approximately 0.2 ng of labeled probe and the DNA-protein complexes were resolved by 4% non-denaturing gel electrophoresis. Unbound (F) and bound complexes (B) are indicated. Lane 1 is free probe; lane 2, 4, 6 and 8 are with 2.5 μg protein; lanes 3, 5, 7 and 9 are with 5 μg protein. Lanes 2, 3, 6 and 7 are untreated; lanes 4, 5, 8 and 9 are treated.
FIG. 5 depicts a Western blot analysis of whole cell extracts from LNCaP and DU145 cells following treatment with 2-ME for 48 hours using a p53 antibody (FL-393, Santa Cruz). 25 μg of extract was fractionated on 10% denaturing gel and transferred to nitrocellulose membrane. After blocking the membrane, it was incubated for 2 hours with the p53 antibody. This was followed by incubation with horseradish peroxidase-conjugated anti-rabbit IgG antibody (Sigma) in the blocking solution. Bound antibody was detected by Supersignal West Pico Chemiluminescent Substrate, following the manufacturer's directions (Pierce, Rockford, Ill.). […]

p53 in DU145 cells = test: p53 EMSA of whole cell extracts; type: cell-based; conditions: DU145 extract, 3 μM, 48 h
Protocol: as §4
As shown in FIG. 4 (Electrophoretic mobility shift assay (EMSA) of extracts prepared from LNCaP and DU145 cells following treatment with 2-ME using p53 oligonucleotide probe) and FIG. 5 (Western blot analysis of extracts following 2-ME treatment with p53 antibody), the proteins from LNCaP and DU145 cells bound to the p53 consensus sequence (FIG. 4, lanes 2 and 3). […] One would expect to see induced expression of p53 following 2-ME treatment, if it is involved in mediating apoptosis.

[3] = test system: prostate cancer cell lines (LNCaP, DU145) and brain and/or nervous system cancer cell line (DAOY); test: Cell proliferation and induction of apoptosis, 2-ME versus 16-ES; type: cell-based
Source text: Building on these findings, further experiments have helped to elucidate the structural bases for 2-ME's molecular efficacy. A number of experiments have been conducted using 2-ME and 16-epiestriol (hereinafter “16-ES”), an analogue of 2-ME that lacks the methoxy group at the second position. In a multitude of experiments, using prostate cancer cell lines (both androgen-dependent (LNCaP), and androgen-independent (DU145) cells), and a brain and/or nervous system cancer cell line (DAOY), the present inventors have studied the effects of 2-ME and 16-ES on cell proliferation and the induction of apoptosis, in a number of ways. […] Further, it also indicates efficacy of a series of compounds with various moieties at the second position in the treatment of cancer. […] Thus, the present inventors now propose a method of synthesizing a number of analogues of 2-ME that will exceed the efficacy of 2-ME in the prevention of cancer.

Compound	size of the tumors (DMBA-TPA induced tumors)	number of tumors after treatment (DMBA-TPA induced tumors; one animal, reduced from 10)	number of tumors, other animal (DMBA-TPA induced tumors; other animal)	endothelial cell proliferation (endothelial cell)	inhibition of growth (LNCaP cells; 0.5 mM of 2-ME)	inhibition of cell proliferation (LNCaP cells; 2-ME 0.5 to 5 μM, monitored every 24 hours)	population of cells in S phase (DU145 cells [1])	G2/M population following treatment (DU145 cells [1]; untreated 23%) [%]	G1 population following treatment (DU145 cells [1]; untreated 71%) [%]	reduction of hyperplasia (epidermal hyperplasia; topical 2 mg 5 min before DMBA application) [%]	inhibition of hyperplasia (epidermal hyperplasia; topical 2 mg during tumor initiation-promotion stage)	inhibition of cell proliferation (DU145 cells [2]; DU145, 2-ME 0.5 to 5 μM, monitored every 24 hours, less sensitive than LNCaP)	DNA-binding activity to p53 consensus sequence (EMSA) (p53 in LNCaP cells; 3 μM, 48 h)	p53 expression (Western blot) (p53 in LNCaP cells; 48 hours)	loss of DNA-binding activity to p53 consensus sequence (EMSA) (p53 in DU145 cells)	inhibition of cancerous cell growth [3]	pro-apoptotic effects [3]	inhibition of growth (LNCaP cells; 0.25 mM of eugenol)	IC50 (LNCaP cells; Homo sapiens, read-out: concentration necessary for 50% inhibition of growth) [µM]	IC50 (DU145 cells [2]; Homo sapiens, DU-145, DU145 cells, read-out: concentration necessary for 50% inhibition of growth) [µM]
COc1cc2c(cc1O)CC[C@@H]1[C@@H]2CC[C@]2(C)[C@@H](O)CC[C@@H]12 [2-ME, 2-methoxyoestradiol]	reduction in the size of the tumors	8	no change	inhibit endothelial cell proliferation	about 20%	dose-dependent inhibition of cell proliferation	no significant change	46	46	26	about 14%	dose-dependent inhibition of cell proliferation	lost their binding activity	decrease in its expression	not as dramatic as that of LNCaP extracts	significantly inhibits cancerous cell growth; also recorded: inhibits the growth	has pro-apoptotic effects			
C[C@]12CC[C@@H]3c4ccc(O)cc4CC[C@H]3[C@@H]1C[C@H](O)[C@@H]2O [16-ES, 16-epiestriol]																does not				
C=CCc1ccc(O)c(OC)c1 [eugenol]																		about 30%	~750	> 2000
